Measurements: US20030166922A1, “Novel cephalosporin compounds and process for preparing the same” (priority 2000, published 2003)
In brackets after ≈: the same amount, converted by molar mass.

What was measured:
Assay in all cases: Minimum Inhibitory Concentration (MIC), agar dilution, standard strains
S. aureus 241 = type: cell-based, Staphylococcus aureus; settings: Table 1, Mueller-Hinton agar, 37° C., 20 hours; for MIC: Staphylococcus aureus, 241, read-out: Minimum Inhibitory Concentration (MIC), S. aureus 241
Method: (§1) Minimum Inhibitory Concentration (MIC)
(§2) The effectiveness of the compound according to the present invention was determined by obtaining Minimum Inhibitory Concentration (MIC) of the compounds prepared by the above Examples (I-1 to I-33) and vancomycin, which is the known compound having a potent activity against gram-positive strains, as the control drug against the standard strains. Specifically, Minimum Inhibitory Concentration was obtained by diluting the test material with a double dilution method, dispersing them in Mueller-Hinton agar medium, inoculating each of the test strain having 10^7 cfu (colny forming unit) in an amount of 2:1 to the medium and then incubating them at 37° C. for 20 hours.

S. aureus 77 = type: cell-based, Staphylococcus aureus; settings: Table 1, Mueller-Hinton agar, 37° C., 20 hours; for MIC: Staphylococcus aureus, 77, read-out: Minimum Inhibitory Concentration (MIC), S. aureus 77
Method: as §1, §2

S. epidermidis R005 = type: cell-based; settings: Table 1, Mueller-Hinton agar, 37° C., 20 hours; for MIC: Staphylococcus epidermidis, R005, read-out: Minimum Inhibitory Concentration (MIC), S. epidermidis R005
Method: as §1, §2

E. faecalis L239 = type: cell-based; settings: Table 1, Mueller-Hinton agar, 37° C., 20 hours; for MIC: Enterococcus faecalis, L239, read-out: Minimum Inhibitory Concentration (MIC), E. faecalis L239
Method: as §1, §2

[1] = test system: Staphylococcus aureus giorgio; type: cell-based; settings: Table 1, Mueller-Hinton agar, 37° C., 20 hours; for MIC: Staphylococcus aureus, read-out: Minimum Inhibitory Concentration (MIC), Staphylococcus aureus giorgio
Method: as §1, §2

Row | Minimum Inhibitory Concentration (MIC), S. aureus 241 (S. aureus 241) | Minimum Inhibitory Concentration (MIC), S. aureus 77 (S. aureus 77) | Minimum Inhibitory Concentration (MIC), S. epidermidis R005 (S. epidermidis R005) | Minimum Inhibitory Concentration (MIC), E. faecalis L239 (E. faecalis L239) | Minimum Inhibitory Concentration (MIC), Staphylococcus aureus giorgio [1] | MIC (S. aureus 241) | MIC (S. aureus 77) | MIC (S. epidermidis R005) | MIC (E. faecalis L239) | MIC [1] | Compound
1 |  |  |  |  |  | 2 µg/mL (≈ 3.3 µM) | 0.13 µg/mL (≈ 0.215 µM) | 0.25 µg/mL (≈ 0.413 µM) | 0.5 µg/mL (≈ 0.826 µM) | 0.016 µg/mL (≈ 0.0264 µM) | Nc1ncnc(SCSC2=C(C(=O)O)N3C(=O)[C@@H](NC(=O)CSc4cc(Cl)ccc4Cl)[C@H]3SC2)c1N [Example I-17, (6R,7R)-3-({[(5,6-diamino-4-pyrimidinyl)sulfanyl]methyl}sulfanyl)-7-({2-[(2,5-dichlorophenyl)sulfanyl]acetyl}amino)-8-oxo-5-thia-1-azabicyclo[4.2.0]oct-2-ene-2-carboxylic acid]
2 | 4 :g/ml | 0.25 :g/ml | 0.25 :g/ml | 0.5 :g/ml | 0.016 :g/ml |  |  |  |  |  | Cc1c(N)nc(SCSC2=C(C(=O)O)N3C(=O)[C@@H](NC(=O)CSc4cc(Cl)ccc4Cl)[C@H]3SC2)nc1N [Example I-18, (6R,7R)-3-({[(4,6-diamino-5-methyl-2-pyrimidinyl)sulfanyl]methyl}sulfan-yl)-7-({2-[(2,5-dichlorophenyl)sulfanyl]acetyl}amino)-8-oxo-5-thia-1-azabicyclo[4.2.0]oc-t-2-ene-2-carb oxylic acid]
3 | 32 :g/ml | 4 :g/ml | 2 :g/ml | 4 :g/ml | 0.063 :g/ml |  |  |  |  |  | CNc1[n+](C)c(N)nc(SCSC2=C(C(=O)O)N3C(=O)[C@@H](NC(=O)CSc4cc(Cl)ccc4Cl)[C@H]3SC2)[n+]1N [Example I-19, (6R,7R)-1,4-diamino-6-[({[2-carboxy-7-({2-[(2,5-dichlorophenyl)sulfany-1]acetyl}amino)-8-oxo-5-thia-1-azabicyclo[4.2.0]oct-2-en-3-yl]sulfanyl}methyl)sulfanyl]-3-methyl-2-(methylamino)-1,3,5-triazine-1,3-diium]
4 |  |  |  |  |  | 4 µg/mL (≈ 6.29 µM) | 0.5 µg/mL (≈ 0.787 µM) | 0.25 µg/mL (≈ 0.393 µM) | 0.25 µg/mL (≈ 0.393 µM) | < 0.008 µg/mL | CSc1nc(C)cc(SCSC2=C(C(=O)O)N3C(=O)[C@@H](NC(=O)CSc4cc(Cl)ccc4Cl)[C@H]3SC2)n1 [Example I-22, (6R,7R)-7-({2-[(2,5-dichlorophenyl)sulfanyl]acetyl}amino)-3-[({[6-methyl-2-(methylsulfanyl)-4-pyrimidinyl]sulfanyl}methyl)sulfanyl]-8-oxo-5-thia-1-azabicyclo[4.2. 0]oct-2-ene-2-carboxylic acid]

The next lines start with the compound.

Row | Compound | Minimum Inhibitory Concentration (MIC), S. aureus 241 (S. aureus 241) | Minimum Inhibitory Concentration (MIC), S. aureus 77 (S. aureus 77) | Minimum Inhibitory Concentration (MIC), S. epidermidis R005 (S. epidermidis R005) | Minimum Inhibitory Concentration (MIC), E. faecalis L239 (E. faecalis L239) | Minimum Inhibitory Concentration (MIC), Staphylococcus aureus giorgio [1] | MIC (S. aureus 241) | MIC (S. aureus 77) | MIC (S. epidermidis R005) | MIC (E. faecalis L239) | MIC [1]
5 | Nc1nc(SCSC2=C(C(=O)O)N3C(=O)[C@@H](NC(=O)CSc4cc(Cl)ccc4Cl)[C@H]3SC2)nc2c1CCC2 [Example I-9, (6R,7R)-3-({[(4-amino-6,7-dihydro-5H-cyclopenta[d]pyrimidin-2-yl)sulfany-1]methyl}sulfanyl)-7-({2-[(2,5-dichlorophenyl)sulfanyl]acetyl}amino)-8-oxo-5-thia-1-aza-bicyclo[4.2.0]oct-2-ene-2-carboxylic acid] | 4 :g/ml | 0.25 :g/ml | 0.25 :g/ml | 0.25 :g/ml | <0.008 :g/ml |  |  |  |  | 
6 | Nc1cc(N)[n+](N)c(SCSC2=C(C(=O)O)N3C(=O)[C@@H](NC(=O)CSc4cc(Cl)ccc4Cl)[C@H]3SC2)n1 [Example I-10, (6R,7R)-1,4,6-triamino-2-[({[2-carboxy-7-({2-[(2,5-dichlorophenyl)sulfany-1]acetyl}amino)-8-oxo-5-thia-1-azabicyclo[4.2.0]oct-2-en-3-yl]sulfanyl}methyl)sulfanyl]p-yrimidin-1-iu m] | 4 :g/ml | 0.25 :g/ml | 0.13 :g/ml | 0.5 :g/ml | <0.008 :g/ml |  |  |  |  | 
7 | Nc1nc(SCSC2=C(C(=O)O)N3C(=O)[C@@H](NC(=O)CSc4cc(Cl)ccc4Cl)[C@H]3SC2)c2c([n+]1N)CCC2 [Example I-11, (6R,7R)-1 ,2-diamino-4-[({(E)-3-[2-carboxy-7-({2-[(2,5-dichlorophenyl)sulf-anyl]acetyl}amino)-8-oxo-5-thia-1-azabicyclo[4.2.0]oct-2-en-3-yl]sulfanyl}methyl)sulfan-yl]-6,7-dihyd ro-5H-cyclopenta[d]pyrimidin-1-ium] | 1 :g/ml | 0.063 :g/ml | 0.063 :g/ml | 0.25 :g/ml | <0.008 :g/ml |  |  |  |  | 
8 | CCSc1nc(C)cc(SCSC2=C(C(=O)O)N3C(=O)[C@@H](NC(=O)CSc4cc(Cl)ccc4Cl)[C@H]3SC2)n1 [Example I-12, (6R,7R)-7-({2-[(2,5-dichlorophenyl)sulfanyl]acetyl}amino)-3-[({[2-(ethylsul-fanyl)-6-methyl-4-pyrimidinyl]sulfanyl}methyl)sulfanyl]-8-oxo-5-thia-1-azabicyclo[4.2. 0]oct-2-ene-2-carboxylic acid] | 4 :g/ml | 0.5 :g/ml | 0.5 :g/ml | 0.25 :g/ml | 0.031 :g/ml |  |  |  |  | 
9 | Nc1nc(SCSC2=C(C(=O)O)N3C(=O)[C@@H](NC(=O)CSc4cc(Cl)ccc4Cl)[C@H]3SC2)nc2cn[nH]c12 [Example I-13, (6R,7R)-3-({[(7-amino-1H-pyrazolo [4,3-d]pyrimidin-5-yl)sulfanyl]methy-1}sulfanyl)-7-({2-[(2,5-dichlorophenyl)sulfanyl]acetyl}amino)-8-oxo-5-thia-1-azabicyc-lo[4.2.0]oct-2-ene-2-carboxylic acid] | 2 :g/ml | 0.13 :g/ml | 0.13 :g/ml | 0.25 :g/ml | <0.008 :g/ml |  |  |  |  | 
10 | Cn1c(N)n[n+]2c(SCSC3=C(C(=O)O)N4C(=O)[C@@H](NC(=O)CSc5cc(Cl)ccc5Cl)[C@H]4SC3)nc(N)cc12 [Example I-14, (6R,7R)-2,7-diamino-5-[({[2-carboxy-7-({2-[(2,5-dichlorophenyl)sulfany-1]acetyl}amino)-8-oxo-5-thia-1-azabicyclo[4.2.0]oct-2-en-3-yl]sulfanyl}methyl)sulfanyl]-1-methyl-1H,2H, 3H-[1,2,4]triazolo[1,5-c]pyrimidin-4-ium] | 2 :g/ml | 0.25 :g/ml | 0.13 :g/ml | 0.13 :g/ml | <0.008 :g/ml |  |  |  |  | 
11 | Nc1cc(N)nc(SCSC2=C(C(=O)O)N3C(=O)[C@@H](NC(=O)CSc4cc(Cl)ccc4Cl)[C@H]3SC2)n1 [Example I-16, (6R,7R)-3-({[(4,6-diamino-2-pyrimidinyl)sulfanyl]methyl}sulfanyl)-7-({2-[(2,5-dichlorophenyl)sulfanyl]acetyl}amino)-8-oxo-5-thia-1-azabicyclo[4.2.0]oct-2-ene-2-carboxylic acid] |  |  |  |  |  | 2 µg/mL (≈ 3.3 µM) | 0.25 µg/mL (≈ 0.413 µM) | 0.063 µg/mL (≈ 0.104 µM) | 0.5 µg/mL (≈ 0.826 µM) | < 0.008 µg/mL
